Source: patent US20240190831A1, “TRANSTHYRETIN STABILIZING COMPOUNDS” (Protego Biopharma, Inc., priority 2021, published 2024)

Experiment: In vitro rat liver S9 stability assay (formation of tafamidis)
Type: in vitro ADME
Details: rat liver S9, 1 μM test compound, 37° C.
Procedure: A stability assay in liver S9 (rat or human) was used to evaluate the ability of a compound provided herein to convert to an active TTR stabilizer. The test compound was added to liver S9 and incubated at 37° C. in a water bath at a concentration of 1 μM. At each time point (0, 5, 10, 20, 30 and 60 min), stop solution (tolbutamide plus labetalol) was added to precipitate protein and mixed thoroughly. After centrifugation, an aliquot of supernatant was analyzed by LC-MS/MS. The percentage of formation of active agent was calculated at each time point.

Row | SMILES | Formation of tafamidis at 60 min
1 | O=C(NC1CCN(CCF)C1)c1ccc2nc(-c3cc(Cl)cc(Cl)c3)oc2c1 (stereo not drawn) [Compound 22, 2-(3,5-dichlorophenyl)-N-(1-(2-fluoroethyl)pyrrolidin-3-yl)benzo[d]oxazole-6-carboxamide] | A (A is <25%)
2 | O=C(NC1CCN(CC(F)(F)F)C1)c1ccc2nc(-c3cc(Cl)cc(Cl)c3)oc2c1 (stereo not drawn) [Compound 24, 2-(3,5-dichlorophenyl)-N-(1-(2,2,2-trifluoroethyl)pyrrolidin-3-yl)benzo[d]oxazole-6-carboxamide] | A (A is <25%)
3 | O=C(N[C@H]1C[C@H](O)C1)c1ccc2nc(-c3cc(Cl)cc(Cl)c3)oc2c1 [Compound 26, 2-(3,5-dichlorophenyl)-N-((trans)-3-hydroxycyclobutyl)-benzo[d]oxazole-6-carboxamide] | A (A is <25%)
4 | O=C(N[C@H]1C[C@@H](O)C1)c1ccc2nc(-c3cc(Cl)cc(Cl)c3)oc2c1 [Compound 27, 2-(3,5-dichlorophenyl)-N-((Cis)-3-hydroxycyclobutyl)benzo-[d]oxazole-6-carboxamide] | A (A is <25%)
5 | CCC(Cc1ncc[nH]1)OC(=O)c1ccc2nc(-c3cc(Cl)cc(Cl)c3)oc2c1 (stereo not drawn) [Compound 37, 1-(1H-imidazol-2-yl) butan-2-yl 2-(3,5-dichlorophenyl)benzo-[d]oxazole-6-carboxylate] | A (A is <25%)
6 | O=C(OCCCO)c1ccc2nc(-c3cc(Cl)cc(Cl)c3)oc2c1 [Compound 40, 3-hydroxypropyl 2-(3,5-dichlorophenyl)benzo[d]oxazole-6-carboxylate] | B (B is ≥25 to <50%)
7 | CC(CCO)OC(=O)c1ccc2nc(-c3cc(Cl)cc(Cl)c3)oc2c1 (stereo not drawn) [Compound 41, 4-hydroxybutan-2-yl 2-(3,5-dichlorophenyl) benzo [d] oxazole-6-carboxylate] | C (C is ≥50 to <75%)
8 | CC(N1CCC(OC(=O)c2ccc3nc(-c4cc(Cl)cc(Cl)c4)oc3c2)C1)C(F)(F)F (stereo not drawn) [Compound 45, 1-(1,1,1-trifluoropropan-2-yl)pyrrolidin-3-yl 2-(3,5-dichlorophenyl)benzo[d]oxazole-6-carboxylate] | B (B is ≥25 to <50%)
9 | O=C(c1ccc2nc(-c3cc(Cl)cc(Cl)c3)oc2c1)N1CCOCC1 [Compound 81] | A (A is <25%)
10 | O=C(c1ccc2nc(-c3cc(Cl)cc(Cl)c3)oc2c1)N1CC(O)C(F)(F)C1 (stereo not drawn) [Compound 86] | A (A is <25%)
11 | CN(C)C(=O)c1ccc2nc(-c3cc(Cl)cc(Cl)c3)oc2c1 [Compound 87, 2-(3,5-Dichlorophenyl)-N,N-dimethylbenzo[d]oxazole-6-carboxamide] | A (A is <25%)
12 | O=C(c1ccc2nc(-c3cc(Cl)cc(Cl)c3)oc2c1)N1CCCCC1 [Compound 89] | A (A is <25%)
13 | O=C(c1ccc2nc(-c3cc(Cl)cc(Cl)c3)oc2c1)N(CCO)CC(F)F [Compound 90] | A (A is <25%)
14 | O=C(c1ccc2nc(-c3cc(Cl)cc(Cl)c3)oc2c1)N(CCO)CCF [Compound 91] | A (A is <25%)
15 | O=C(c1ccc2nc(-c3cc(Cl)cc(Cl)c3)oc2c1)N1CC2(CC(O)C2)C1 [Compound 94] | A (A is <25%)
16 | O=C(c1ccc2nc(-c3cc(Cl)cc(Cl)c3)oc2c1)N1CCCCC1CO (stereo not drawn) [Compound 95] | A (A is <25%)
17 | O=C(N[C@H]1CC[C@@H](O)CC1)c1ccc2nc(-c3cc(Cl)cc(Cl)c3)oc2c1 [Compound 96] | A (A is <25%)

Next, values leading:

Row | Formation of tafamidis at 60 min | SMILES
18 | A (A is <25%) | CN1CCC(NC(=O)c2ccc3nc(-c4cc(Cl)cc(Cl)c4)oc3c2)C1 (stereo not drawn) [Compound 21, 2-(3,5-dichlorophenyl)-N-(1-methylpyrrolidin-3-yl)benzo[d]oxazole-6-carboxamide]
19 | A (A is <25%) | O=C(NC1CCN(CC(F)F)C1)c1ccc2nc(-c3cc(Cl)cc(Cl)c3)oc2c1 (stereo not drawn) [Compound 23, 2-(3,5-dichlorophenyl)-N-(1-(2,2-difluoroethyl)pyrrolidin-3-yl)benzo[d]oxazole-6-carboxamide]
20 | D (D is ≥75%) | O=C(OCCc1ccn[nH]1)c1ccc2nc(-c3cc(Cl)cc(Cl)c3)oc2c1 [Compound 36, 2-(1H-pyrazol-5-yl) ethyl 2-(3,5-dichlorophenyl)benzo[d]oxazole-6-carboxylate]
21 | B (B is ≥25 to <50%) | CC(Cc1ccn[nH]1)OC(=O)c1ccc2nc(-c3cc(Cl)cc(Cl)c3)oc2c1 (stereo not drawn) [Compound 38, 1-(1H-pyrazol-5-yl)propan-2-yl 2-(3,5-dichlorophenyl) benzo[d]oxazole-6-carboxylate]
22 | B (B is ≥25 to <50%) | CC1(C)CCC(OC(=O)c2ccc3nc(-c4cc(Cl)cc(Cl)c4)oc3c2)C1 (stereo not drawn) [Compound 48, 3,3-dimethylcyclopentyl 2-(3,5-dichlorophenyl)benzo[d]oxazole-6-carboxylate]
23 | B (B is ≥25 to <50%) | O=C(OC1CCN(c2cccnc2)C1)c1ccc2nc(-c3cc(Cl)cc(Cl)c3)oc2c1 (stereo not drawn) [Compound 49, 1-(pyridin-3-yl)pyrrolidin-3-yl 2-(3,5-dichlorophenyl)benzo-[d]oxazole-6-carboxylate]
24 | A (A is <25%) | O=C(OC1CCN(c2ccncc2)C1)c1ccc2nc(-c3cc(Cl)cc(Cl)c3)oc2c1 (stereo not drawn) [Compound 50, 1-(pyridin-4-yl)pyrrolidin-3-yl 2-(3,5-dichlorophenyl)benzo-[d]oxazole-6-carboxylate]
25 | B (B is ≥25 to <50%) | O=C(OC1CCN(c2ncccn2)C1)c1ccc2nc(-c3cc(Cl)cc(Cl)c3)oc2c1 (stereo not drawn) [Compound 51, 1-(pyrimidin-2-yl)pyrrolidin-3-yl 2-(3,5-dichlorophenyl)benzo-[d]oxazole-6-carboxylate]
26 | A (A is <25%) | O=C(OC1CCN(c2cnccn2)C1)c1ccc2nc(-c3cc(Cl)cc(Cl)c3)oc2c1 (stereo not drawn) [Compound 52, 1-(pyrazin-2-yl)pyrrolidin-3-yl 2-(3,5-dichlorophenyl)benzo-[d]oxazole-6-carboxylate]
27 | A (A is <25%) | O=C(OC1CCN(c2ccncn2)C1)c1ccc2nc(-c3cc(Cl)cc(Cl)c3)oc2c1 (stereo not drawn) [Compound 53, 1-(pyrimidin-4-yl)pyrrolidin-3-yl 2-(3,5-dichlorophenyl)benzo-[d]oxazole-6-carboxylate]
28 | A (A is <25%) | O=C(OC1CCN(c2cccnn2)C1)c1ccc2nc(-c3cc(Cl)cc(Cl)c3)oc2c1 (stereo not drawn) [Compound 54, 1-(pyridazin-3-yl)pyrrolidin-3-yl 2-(3,5-dichlorophenyl)benzo-[d]oxazole-6-carboxylate]
29 | B (B is ≥25 to <50%) | O=C(OC1CCN2CCCCC12)c1ccc2nc(-c3cc(Cl)cc(Cl)c3)oc2c1 (stereo not drawn) [Compound 55, Octahydroindolizin-1-yl 2-(3,5-dichlorophenyl)benzo[d]oxazole-6-carboxylate]
30 | A (A is <25%) | Cc1ncc2n1CC(OC(=O)c1ccc3nc(-c4cc(Cl)cc(Cl)c4)oc3c1)CC2 (stereo not drawn) [Compound 56, 3-methyl-5,6,7,8-tetrahydroimidazo [1,5-a] pyridin-6-yl 2-(3,5-dichlorophenyl) benzo[d]oxazole-6-carboxylate]
31 | A (A is <25%) | CC(C)(N1CCC(OC(=O)c2ccc3nc(-c4cc(Cl)cc(Cl)c4)oc3c2)C1)C(F)(F)F (stereo not drawn) [Compound 57, 1-(1,1,1-trifluoro-2-methylpropan-2-yl)pyrrolidin-3-yl 2-(3,5-dichlorophenyl)benzo[d]oxazole-6-carboxylate]
32 | A (A is <25%) | O=C(OC1CCc2nc[nH]c2C1)c1ccc2nc(-c3cc(Cl)cc(Cl)c3)oc2c1 (stereo not drawn) [Compound 60, 4,5,6,7-tetrahydro-1H-benzo[d]imidazol-6-yl 2-(3,5-dichlorophenyl) benzo[d]oxazole-6-carboxylate]
33 | A (A is <25%) | O=C(O[C@H]1C[C@@H](O)C1)c1ccc2nc(-c3cc(Cl)cc(Cl)c3)oc2c1 [Compound 63, (cis)-3-hydroxycyclobutyl 2-(3,5-dichlorophenyl) benzo[d]oxazole-6-carboxylate]
34 | B (B is ≥25 to <50%) | O=C(O[C@H]1C[C@H](O)C1)c1ccc2nc(-c3cc(Cl)cc(Cl)c3)oc2c1 [Compound 64, (trans)-3-hydroxycyclobutyl 2-(3,5-dichlorophenyl) benzo[d]oxazole-6-carboxylate]
35 | C (C is ≥50 to <75%) | O=C(OC1CC(=O)N2CCCCC12)c1ccc2nc(-c3cc(Cl)cc(Cl)c3)oc2c1 (stereo not drawn) [Compound 65, 3-oxooctahydroindolizin-1-yl 2-(3,5-dichlorophenyl)benzo-[d]oxazole-6-carboxylate]
36 | A (A is <25%) | O=C(OC1CCN(CCO)C1)c1ccc2nc(-c3cc(Cl)cc(Cl)c3)oc2c1 (stereo not drawn) [Compound 66]
37 | A (A is <25%) | COCCN1CCC(OC(=O)c2ccc3nc(-c4cc(Cl)cc(Cl)c4)oc3c2)C1 (stereo not drawn) [Compound 67, 1-(2-methoxyethyl) pyrrolidin-3-yl 2-(3,5-dichlorophenyl) benzo[d]oxazole-6-carboxylate]
38 | A (A is <25%) | CC(Cc1cnc[nH]1)OC(=O)c1ccc2nc(-c3cc(Cl)cc(Cl)c3)oc2c1 (stereo not drawn) [Compound 80]
39 | A (A is <25%) | O=C(c1ccc2nc(-c3cc(Cl)cc(Cl)c3)oc2c1)N1CCC(O)CC1 [Compound 82]
40 | A (A is <25%) | O=C(c1ccc2nc(-c3cc(Cl)cc(Cl)c3)oc2c1)N1CCCC1CO (stereo not drawn) [Compound 85]
41 | A (A is <25%) | O=C(c1ccc2nc(-c3cc(Cl)cc(Cl)c3)oc2c1)N1CCCC1 [Compound 88]
42 | A (A is <25%) | CC1(O)CCN(C(=O)c2ccc3nc(-c4cc(Cl)cc(Cl)c4)oc3c2)C1 (stereo not drawn) [Compound 92]
